Experimental data published in patent publication US20020111274A1, “1-alkyl-3-[1-(substituted phenyl) benzotriazol-6-yl] uracils” (BASF Aktiengesellschaft, priority 2000, published 2002).

What was measured:
Design in all cases: scale not given here
[1] = tested on: ABUTH Velvetleaf; assay: Postemergence herbicidal evaluation, ABUTH; type: in vivo, Abutilon theophrasti, Medic.; details: postemergence spray, rated about two-three weeks after treatment
Outline: (§1)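 Ratings from greenhouse plants scored about two to three weeks after a foliar spray; data from multiple tests averaged. Seedlings about two weeks old received roughly 0.006–0.400 kg/ha active compound in 80/20 acetone/water with 1.0% methylated seed oil.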

[2] = tested on: AMBEL Ragweed, Common; assay: Postemergence herbicidal evaluation, AMBEL; type: in vivo, Ambrosia artemisifolia, L.; details: postemergence spray, rated about two-three weeks after treatment
Outline: as §1

[3] = tested on: CASOB Sicklepod; assay: Postemergence herbicidal evaluation, CASOB; type: in vivo, Cassia obtusifolia, L.; details: postemergence spray, rated about two-three weeks after treatment
Outline: as §1

[4] = tested on: CHEAL Lambsquarters, Common; assay: Postemergence herbicidal evaluation, CHEAL; type: in vivo, Chenopodium album, L.; details: postemergence spray, rated about two-three weeks after treatment
Outline: as §1

[5] = tested on: ECHOG Barnyardgrass; assay: Postemergence herbicidal evaluation, ECHOG; type: in vivo, Echinochloa crus-galli, (L.) Beau; details: postemergence spray, rated about two-three weeks after treatment
Outline: as §1

[6] = tested on: GALAP Galium; assay: Postemergence herbicidal evaluation, GALAP; type: in vivo, Galium aparine; details: postemergence spray, rated about two-three weeks after treatment
Outline: as §1

[7] = tested on: IPOHE Morningglory, Ivyleaf; assay: Postemergence herbicidal evaluation, IPOHE; type: in vivo, Ipomoea hederacea, (L.) Jacq.; details: postemergence spray, rated about two-three weeks after treatment
Outline: as §1

[8] = tested on: SETVI Foxtail, Green; assay: Postemergence herbicidal evaluation, SETVI; type: in vivo, Setaria viridis, (L.) Beau; details: postemergence spray, rated about two-three weeks after treatment
Outline: as §1

[9] = tested on: GLXMAW Soybean, Williams; assay: Postemergence herbicidal evaluation, GLXMAW; type: in vivo, Glycine max, (L.) Merr. cv Williams; details: postemergence spray, rated about two-three weeks after treatment
Outline: as §1

[10] = tested on: TRZAWR Wheat, Winter, cv Riband; assay: Postemergence herbicidal evaluation, TRZAWR; type: in vivo, Triticum aestivum; details: postemergence spray, rated about two-three weeks after treatment
Outline: as §1

[11] = tested on: ORYSAT Rice, Tebonnet; assay: Postemergence herbicidal evaluation, ORYSAT; type: in vivo, Oryza sativa, (L.); details: postemergence spray, rated about two-three weeks after treatment
Outline: as §1

[12] = tested on: ZEAMX Corn, Field; assay: Postemergence herbicidal evaluation, ZEAMX; type: in vivo, Zea mays, L. (Sammel-Bezeichnung); details: postemergence spray, rated about two-three weeks after treatment
Outline: as §1

[13] = tested on: ABUTH Velvetleaf; assay: Preemergence herbicidal evaluation, ABUTH; type: in vivo, Abutilon theophrasti, Medic.; details: preemergence
Outline: (§2)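 Seeds mixed with potting soil in cups, then sprayed preemergence with aqueous acetone test solution at about 0.013 to 0.800 kg per hectare equivalent. Cups kept under standard greenhouse care; plants rated on a visual scale four to five weeks after treatment.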

[14] = tested on: AMBEL Ragweed, Common; assay: Preemergence herbicidal evaluation, AMBEL; type: in vivo, Ambrosia artemisifolia, L.; details: preemergence
Outline: as §2

[15] = tested on: CASOB Sicklepod; assay: Preemergence herbicidal evaluation, CASOB; type: in vivo, Cassia obtusifolia, L.; details: preemergence
Outline: as §2

[16] = tested on: CHEAL Lambsquarters, Common; assay: Preemergence herbicidal evaluation, CHEAL; type: in vivo, Chenopodium album, L.; details: preemergence
Outline: as §2

[17] = tested on: ECHOG Barnyardgrass; assay: Preemergence herbicidal evaluation, ECHOG; type: in vivo, Echinochloa crus-galli, (L.) Beau; details: preemergence
Outline: as §2

[18] = tested on: GALAP Galium; assay: Preemergence herbicidal evaluation, GALAP; type: in vivo, Galium aparine; details: preemergence
Outline: as §2

[19] = tested on: IPOHE Morningglory, Ivyleaf; assay: Preemergence herbicidal evaluation, IPOHE; type: in vivo, Ipomoea hederacea, (L.) Jacq.; details: preemergence
Outline: as §2

[20] = tested on: SETVI Foxtail, Green; assay: Preemergence herbicidal evaluation, SETVI; type: in vivo, Setaria viridis, (L.) Beau; details: preemergence
Outline: as §2

[21] = tested on: GLXMAW Soybean, Williams; assay: Preemergence herbicidal evaluation, GLXMAW; type: in vivo, Glycine max, (L.) Merr. cv Williams; details: preemergence
Outline: as §2

[22] = tested on: TRZAWR Wheat, Winter, cv Riband; assay: Preemergence herbicidal evaluation, TRZAWR; type: in vivo, Triticum aestivum; details: preemergence
Outline: as §2

[23] = tested on: ORYSAT Rice, Tebonnet; assay: Preemergence herbicidal evaluation, ORYSAT; type: in vivo, Oryza sativa, (L.); details: preemergence
Outline: as §2

[24] = tested on: ZEAMX Corn, Field; assay: Preemergence herbicidal evaluation, ZEAMX; type: in vivo, Zea mays, L. (Sammel-Bezeichnung); details: preemergence
Outline: as §2

COc1ccc(-n2nnc3cc(F)c(-n4c(=O)cc(C(F)(F)F)n(C)c4=O)cc32)c(C)c1 [Example 24]
4.5: Postemergence herbicidal rating ZEAMX ([12]; 0.062 kg/ha)
3.5: Postemergence herbicidal rating GLXMAW ([9]; 0.016 kg/ha) | Postemergence herbicidal rating TRZAWR ([10]; 0.062 kg/ha) | Postemergence herbicidal rating ZEAMX ([12]; 0.008 kg/ha) | Postemergence herbicidal rating ZEAMX ([12]; 0.016 kg/ha) | Postemergence herbicidal rating ZEAMX ([12]; 0.032 kg/ha)
2.0: Postemergence herbicidal rating AMBEL ([2]; 0.062 kg/ha) | Postemergence herbicidal rating GALAP ([6]; 0.032 kg/ha) | Postemergence herbicidal rating ORYSAT ([11]; 0.008 kg/ha) | Postemergence herbicidal rating ORYSAT ([11]; 0.016 kg/ha) | Postemergence herbicidal rating ORYSAT ([11]; 0.032 kg/ha) | GLXMAW herbicidal rating ([21]; rate 0.062 kg/ha)
7.0: ECHCG herbicidal rating ([17]; rate 0.125 kg/ha)
3.0: Postemergence herbicidal rating ABUTH ([1]; 0.008 kg/ha) | Postemergence herbicidal rating CHEAL ([4]; 0.008 kg/ha) | Postemergence herbicidal rating CHEAL ([4]; 0.016 kg/ha) | Postemergence herbicidal rating CHEAL ([4]; 0.032 kg/ha) | Postemergence herbicidal rating GALAP ([6]; 0.062 kg/ha) | Postemergence herbicidal rating IPOHE ([7]; 0.016 kg/ha) | Postemergence herbicidal rating GLXMAW ([9]; 0.008 kg/ha) | ECHCG herbicidal rating ([17]; rate 0.062 kg/ha)
0.0: Postemergence herbicidal rating AMBEL ([2]; 0.008 kg/ha) | Postemergence herbicidal rating AMBEL ([2]; 0.016 kg/ha) | Postemergence herbicidal rating AMBEL ([2]; 0.032 kg/ha) | Postemergence herbicidal rating CASOB ([3]; 0.008 kg/ha) | Postemergence herbicidal rating CASOB ([3]; 0.016 kg/ha) | Postemergence herbicidal rating CASOB ([3]; 0.032 kg/ha) | Postemergence herbicidal rating CASOB ([3]; 0.062 kg/ha) | Postemergence herbicidal rating ECHCG ([5]; 0.008 kg/ha) | Postemergence herbicidal rating ECHCG ([5]; 0.016 kg/ha) | Postemergence herbicidal rating ECHCG ([5]; 0.032 kg/ha) | Postemergence herbicidal rating ECHCG ([5]; 0.062 kg/ha) | Postemergence herbicidal rating GALAP ([6]; 0.008 kg/ha) | Postemergence herbicidal rating IPOHE ([7]; 0.008 kg/ha) | Postemergence herbicidal rating SETVI ([8]; 0.008 kg/ha) | Postemergence herbicidal rating SETVI ([8]; 0.016 kg/ha) | Postemergence herbicidal rating SETVI ([8]; 0.032 kg/ha) | Postemergence herbicidal rating SETVI ([8]; 0.062 kg/ha) | ABUTH herbicidal rating ([13]; rate 0.016 kg/ha) | AMBEL herbicidal rating ([14]; rate 0.016 kg/ha) | AMBEL herbicidal rating ([14]; rate 0.032 kg/ha) | AMBEL herbicidal rating ([14]; rate 0.062 kg/ha) | AMBEL herbicidal rating ([14]; rate 0.125 kg/ha) | CASOB herbicidal rating ([15]; rate 0.016 kg/ha) | CASOB herbicidal rating ([15]; rate 0.032 kg/ha) | CASOB herbicidal rating ([15]; rate 0.062 kg/ha) | CASOB herbicidal rating ([15]; rate 0.125 kg/ha) | CHEAL herbicidal rating ([16]; rate 0.016 kg/ha) | CHEAL herbicidal rating ([16]; rate 0.032 kg/ha) | ECHCG herbicidal rating ([17]; rate 0.016 kg/ha) | ECHCG herbicidal rating ([17]; rate 0.032 kg/ha) | GALAP herbicidal rating ([18]; rate 0.016 kg/ha) | GALAP herbicidal rating ([18]; rate 0.032 kg/ha) | GALAP herbicidal rating ([18]; rate 0.062 kg/ha) | IPOHE herbicidal rating ([19]; rate 0.016 kg/ha) | IPOHE herbicidal rating ([19]; rate 0.032 kg/ha) | IPOHE herbicidal rating ([19]; rate 0.062 kg/ha) | IPOHE herbicidal rating ([19]; rate 0.125 kg/ha) | SETVI herbicidal rating ([20]; rate 0.016 kg/ha) | SETVI herbicidal rating ([20]; rate 0.032 kg/ha) | GLXMAW herbicidal rating ([21]; rate 0.016 kg/ha) | TRZAWR herbicidal rating ([22]; rate 0.016 kg/ha) | TRZAWR herbicidal rating ([22]; rate 0.032 kg/ha) | ORYSAT herbicidal rating ([23]; rate 0.016 kg/ha) | ORYSAT herbicidal rating ([23]; rate 0.032 kg/ha) | ZEAMX herbicidal rating ([24]; rate 0.016 kg/ha) | ZEAMX herbicidal rating ([24]; rate 0.032 kg/ha)
1.0: Postemergence herbicidal rating GALAP ([6]; 0.016 kg/ha) | GLXMAW herbicidal rating ([21]; rate 0.032 kg/ha) | TRZAWR herbicidal rating ([22]; rate 0.062 kg/ha) | TRZAWR herbicidal rating ([22]; rate 0.125 kg/ha) | ORYSAT herbicidal rating ([23]; rate 0.062 kg/ha) | ORYSAT herbicidal rating ([23]; rate 0.125 kg/ha)
6.0: ABUTH herbicidal rating ([13]; rate 0.032 kg/ha) | ZEAMX herbicidal rating ([24]; rate 0.125 kg/ha)
4.0: Postemergence herbicidal rating CHEAL ([4]; 0.062 kg/ha) | Postemergence herbicidal rating IPOHE ([7]; 0.032 kg/ha) | Postemergence herbicidal rating IPOHE ([7]; 0.062 kg/ha) | Postemergence herbicidal rating GLXMAW ([9]; 0.032 kg/ha) | Postemergence herbicidal rating GLXMAW ([9]; 0.062 kg/ha) | ZEAMX herbicidal rating ([24]; rate 0.062 kg/ha)
2.5: Postemergence herbicidal rating TRZAWR ([10]; 0.008 kg/ha) | Postemergence herbicidal rating TRZAWR ([10]; 0.016 kg/ha) | Postemergence herbicidal rating TRZAWR ([10]; 0.032 kg/ha) | Postemergence herbicidal rating ORYSAT ([11]; 0.062 kg/ha)
9.0: Postemergence herbicidal rating ABUTH ([1]; 0.016 kg/ha) | Postemergence herbicidal rating ABUTH ([1]; 0.032 kg/ha) | Postemergence herbicidal rating ABUTH ([1]; 0.062 kg/ha) | ABUTH herbicidal rating ([13]; rate 0.062 kg/ha) | ABUTH herbicidal rating ([13]; rate 0.125 kg/ha) | CHEAL herbicidal rating ([16]; rate 0.062 kg/ha) | CHEAL herbicidal rating ([16]; rate 0.125 kg/ha) | SETVI herbicidal rating ([20]; rate 0.062 kg/ha) | SETVI herbicidal rating ([20]; rate 0.125 kg/ha)
5.0: GLXMAW herbicidal rating ([21]; rate 0.125 kg/ha)
